Laboratory results from ChEMBL document CHEMBL1201862, “PubChem BioAssay data set” (2004).
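Values below derive from 48-hour exposures of cells grown in 96-well plates, with endpoints linearly interpolated between the two concentrations bracketing the appropriate inhibition level. GI50 marks 50% less growth.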 Calls of active or inactive are those of the source. Rule as the data show it: active = GI50 up to about 1.1 µM and inactive = higher.

How the values were obtained:
Test in all cases: DTP human tumour cell line panel, 48 h
[1] = test system: 786-0
[2] = test system: A549
[3] = test system: ACHN
[4] = test system: BT-549
[5] = test system: CCRF-CEM
[6] = test system: COLO 205
[7] = test system: DU-145
[8] = test system: HCT-116
[9] = test system: HCT-15
[10] = test system: HL-60
[11] = test system: HOP-62
[12] = test system: HOP-92
[13] = test system: HT-29
[14] = test system: Hs-578T
[15] = test system: IGROV-1
[16] = test system: K562
[17] = test system: KM12
[18] = test system: LOX IMVI
[19] = test system: M14
[20] = test system: MCF7
[21] = test system: MDA-MB-231
[22] = test system: MOLT-4
[23] = test system: Malme-3M
[24] = test system: NCI-H23
[25] = test system: NCI-H460
[26] = test system: NCI-H522
[27] = test system: NCI/ADR-RES
[28] = test system: OVCAR-4
[29] = test system: OVCAR-5
[30] = test system: OVCAR-8
[31] = test system: PC-3
[32] = test system: RPMI-8226
[33] = test system: RXF 393
[34] = test system: SF-268
[35] = test system: SF-295
[36] = test system: SF-539
[37] = test system: SK-MEL-28
[38] = test system: SK-MEL-2
[39] = test system: SK-MEL-5
[40] = test system: SK-OV-3
[41] = test system: SN12C
[42] = test system: SNB-19
[43] = test system: SNB-75
[44] = test system: SR
[45] = test system: SW-620
[46] = test system: T47D
[47] = test system: TK-10
[48] = test system: U-251
[49] = test system: UACC-257
[50] = test system: UACC-62
[51] = test system: UO-31
[52] = test system: A498
[53] = test system: CAKI-1
[54] = test system: EKVX
[55] = test system: HCC 2998
[56] = test system: MDA-MB-435
[57] = test system: NCI-H226
[58] = test system: OVCAR-3
[59] = test system: MDA-N

`Cc1ccc(S(=O)(=O)NC(=O)NC(Cc2ccccc2)C(=O)O)cc1` (centres undefined) was tested, and the GI50 [1] was > 100 µM (inactive), the GI50 [2] was > 100 µM (inactive) and the GI50 [3] was > 100 µM (inactive). The GI50 [4] was > 100 µM (inactive), the GI50 [5] was > 100 µM (inactive) and the GI50 [6] was > 100 µM (inactive). The GI50 [7] was > 100 µM (inactive), the GI50 [8] was > 100 µM (inactive) and the GI50 [9] was greater than 100 µM. For the same compound, the GI50 [10] was > 100 µM (inactive), the GI50 [11] was > 100 µM (inactive) and the GI50 [12] was > 100 µM (inactive). The GI50 [13] was > 100 µM (inactive), the GI50 [14] was > 100 µM (inactive) and the GI50 [15] was > 100 µM (inactive). The GI50 [16] was > 100 µM (inactive), the GI50 [17] was > 100 µM (inactive) and the GI50 [18] was > 100 µM (inactive). The GI50 [19] was > 100 µM (inactive), the GI50 [20] was > 100 µM (inactive) and the GI50 [21] was > 100 µM (inactive). For the same compound, the GI50 [22] was > 100 µM (inactive), the GI50 [23] was > 100 µM (inactive) and the GI50 [24] was > 100 µM (inactive). For the same compound, the GI50 [25] was > 100 µM (inactive), the GI50 [26] was > 100 µM (inactive) and the GI50 [27] was > 100 µM (inactive). The GI50 [28] was > 100 µM (inactive), the GI50 [29] was > 100 µM (inactive) and the GI50 [30] was > 100 µM (inactive). For the same compound, the GI50 [31] was > 100 µM (inactive), the GI50 [32] was > 100 µM (inactive) and the GI50 [33] was > 100 µM (inactive). The GI50 [34] was > 100 µM (inactive), the GI50 [35] was > 100 µM (inactive) and the GI50 [36] was > 100 µM (inactive). For the same compound, the GI50 [37] was > 100 µM (inactive), the GI50 [38] was > 100 µM (inactive) and the GI50 [39] was > 100 µM (inactive). The GI50 [40] was > 100 µM (inactive), the GI50 [41] was > 100 µM (inactive) and the GI50 [42] was > 100 µM (inactive). The GI50 [43] was > 100 µM (inactive), the GI50 [44] was > 100 µM (inactive) and the GI50 [45] was > 100 µM (inactive). The GI50 [46] was > 100 µM (inactive), the GI50 [47] was > 100 µM (inactive) and the GI50 [48] was > 100 µM (inactive). The GI50 [49] was > 100 µM (inactive), the GI50 [50] was > 100 µM (inactive) and the GI50 [51] was > 100 µM (inactive).

For `N=C(N)N/N=C\c1c(-c2cccc([N+](=O)[O-])c2)nc2sccn12`, the GI50 [1] was 3.89 µM (inactive), the GI50 [52] was 25 µM (inactive) and the GI50 [2] was 18.1 µM (inactive). The GI50 [3] was 2.86 µM (inactive), the GI50 [4] was 2.1 µM (inactive) and the GI50 [53] was 17.4 µM (inactive). For the same compound, the GI50 [5] was 2.93 µM (inactive), the GI50 [6] was 2.39 µM (inactive) and the GI50 [7] was 5.16 µM (inactive). For the same compound, the GI50 [54] was 15.9 µM (inactive), the GI50 [55] was 2.39 µM (inactive) and the GI50 [8] was 7.73 µM (inactive). The GI50 [9] was 9.68 µM, the GI50 [10] was 28.9 µM (inactive) and the GI50 [11] was 3.54 µM (inactive). The GI50 [12] was 5.93 µM (inactive), the GI50 [13] was 1.96 µM (inactive) and the GI50 [14] was 3.62 µM (inactive). The GI50 [15] was 15 µM (inactive), the GI50 [16] was 2.8 µM (inactive) and the GI50 [17] was 1.02 µM (active). The GI50 [18] was 3.89 µM (inactive), the GI50 [19] was 2.52 µM (inactive) and the GI50 [20] was 2.03 µM (inactive). For the same compound, the GI50 [21] was 2.15 µM (inactive), the GI50 [56] was 2.59 µM (inactive) and the GI50 [22] was 1.92 µM (inactive). For the same compound, the GI50 [23] was 24.4 µM (inactive), the GI50 [57] was 2.68 µM (inactive) and the GI50 [24] was 3.94 µM (inactive). The GI50 [25] was 24.4 µM (inactive), the GI50 [26] was 3.45 µM (inactive) and the GI50 [27] was > 100 µM (inactive). The GI50 [58] was 2.79 µM (inactive), the GI50 [28] was 1.76 µM (inactive) and the GI50 [29] was 3.91 µM (inactive). The GI50 [30] was 1.81 µM (inactive), the GI50 [31] was 6.7 µM (inactive) and the GI50 [32] was 17.4 µM (inactive). The GI50 [33] was 2.64 µM (inactive), the GI50 [34] was 2.97 µM (inactive) and the GI50 [35] was 2.64 µM (inactive). For the same compound, the GI50 [36] was 17.9 µM (inactive), the GI50 [37] was 2.04 µM (inactive) and the GI50 [38] was 2.37 µM (inactive). For the same compound, the GI50 [39] was 14.6 µM (inactive), the GI50 [41] was 2.21 µM (inactive) and the GI50 [42] was 2.09 µM (inactive). The GI50 [45] was 2.08 µM (inactive), the GI50 [46] was 1.62 µM (inactive) and the GI50 [47] was 2.47 µM (inactive). The GI50 [48] was 2.79 µM (inactive), the GI50 [49] was 23.7 µM (inactive) and the GI50 [50] was 29 µM (inactive). The GI50 [51] was 18.5 µM (inactive).

In the case of `COc1ccc(N(C(=O)NCCO)c2ccccc2)cc1`, the GI50 [1] is reported as > 100 µM (inactive), the GI50 [52] is reported as > 100 µM (inactive) and the GI50 [2] is reported as > 100 µM (inactive). The GI50 [3] was > 100 µM (inactive), the GI50 [53] was > 100 µM (inactive) and the GI50 [5] was > 100 µM (inactive). For the same compound, the GI50 [6] was > 100 µM (inactive), the GI50 [7] was > 100 µM (inactive) and the GI50 [54] was > 100 µM (inactive). For the same compound, the GI50 [55] was > 100 µM (inactive), the GI50 [8] was > 100 µM (inactive) and the GI50 [9] was greater than 100 µM. The GI50 [10] was > 100 µM (inactive), the GI50 [11] was > 100 µM (inactive) and the GI50 [12] was > 100 µM (inactive). The GI50 [13] was > 100 µM (inactive), the GI50 [14] was > 100 µM (inactive) and the GI50 [15] was > 100 µM (inactive). The GI50 [16] was > 100 µM (inactive), the GI50 [17] was > 100 µM (inactive) and the GI50 [18] was > 100 µM (inactive). For the same compound, the GI50 [19] was > 100 µM (inactive), the GI50 [20] was > 100 µM (inactive) and the GI50 [21] was > 100 µM (inactive). For the same compound, the GI50 [56] was > 100 µM (inactive), the GI50 [59] was > 100 µM (inactive) and the GI50 [22] was > 100 µM (inactive). For the same compound, the GI50 [23] was > 100 µM (inactive), the GI50 [57] was > 100 µM (inactive) and the GI50 [24] was > 100 µM (inactive). For the same compound, the GI50 [25] was > 100 µM (inactive), the GI50 [26] was > 100 µM (inactive) and the GI50 [27] was > 100 µM (inactive). For the same compound, the GI50 [58] was > 100 µM (inactive), the GI50 [28] was > 100 µM (inactive) and the GI50 [29] was > 100 µM (inactive). For the same compound, the GI50 [30] was > 100 µM (inactive), the GI50 [31] was > 100 µM (inactive) and the GI50 [32] was > 100 µM (inactive). For the same compound, the GI50 [33] was > 100 µM (inactive), the GI50 [34] was > 100 µM (inactive) and the GI50 [35] was > 100 µM (inactive). For the same compound, the GI50 [36] was > 100 µM (inactive), the GI50 [37] was > 100 µM (inactive) and the GI50 [38] was > 100 µM (inactive). For the same compound, the GI50 [39] was > 100 µM (inactive), the GI50 [40] was > 100 µM (inactive) and the GI50 [41] was > 100 µM (inactive). For the same compound, the GI50 [42] was > 100 µM (inactive), the GI50 [43] was > 100 µM (inactive) and the GI50 [44] was > 100 µM (inactive). The GI50 [45] was > 100 µM (inactive), the GI50 [46] was > 100 µM (inactive) and the GI50 [47] was > 100 µM (inactive). For the same compound, the GI50 [48] was > 100 µM (inactive), the GI50 [49] was > 100 µM (inactive) and the GI50 [50] was > 100 µM (inactive). For the same compound, the GI50 [51] was > 100 µM (inactive).

In the case of `COc1cc(OC)c2[nH]c3c(O)c(-c4c(C)cc5c([nH]c6c(OC)cc(OC)cc65)c4O)c(C)cc3c2c1`, the GI50 [1] is reported as 8.3 µM (inactive), the GI50 [2] is reported as 6.49 µM (inactive) and the GI50 [3] is reported as 8.77 µM (inactive). For the same compound, the GI50 [4] was 9.02 µM (inactive), the GI50 [7] was 7.87 µM (inactive) and the GI50 [54] was 6.22 µM (inactive). The GI50 [55] was 8.51 µM (inactive), the GI50 [8] was 8.81 µM (inactive) and the GI50 [11] was 10.3 µM (inactive). The GI50 [12] was 8.73 µM (inactive), the GI50 [14] was 9.44 µM (inactive) and the GI50 [15] was 7.18 µM (inactive). For the same compound, the GI50 [17] was 9.4 µM (inactive), the GI50 [18] was 7.89 µM (inactive) and the GI50 [19] was 8.38 µM (inactive). The GI50 [21] was 9.23 µM (inactive), the GI50 [57] was 9.08 µM (inactive) and the GI50 [25] was 8.55 µM (inactive). The GI50 [26] was 9.06 µM (inactive), the GI50 [27] was 8.77 µM (inactive) and the GI50 [58] was 8.87 µM (inactive). The GI50 [28] was 9.42 µM (inactive), the GI50 [30] was 8.43 µM (inactive) and the GI50 [31] was 7.91 µM (inactive). The GI50 [33] was 9.12 µM (inactive), the GI50 [34] was 8.39 µM (inactive) and the GI50 [36] was 9.42 µM (inactive). For the same compound, the GI50 [37] was 9.38 µM (inactive), the GI50 [38] was 9.25 µM (inactive) and the GI50 [43] was 7.89 µM (inactive). The GI50 [45] was 9.35 µM (inactive), the GI50 [46] was 8.85 µM (inactive) and the GI50 [47] was 10.1 µM (inactive). For the same compound, the GI50 [48] was 11.7 µM (inactive) and the GI50 [49] was 9.33 µM (inactive).
